Assay results reported in patent US6448263B1, “Treatment of insulin resistance with growth hormone secretagogues” (Pfizer Inc., priority 1997, dated 2002).
Where a name gives a salt, the structure may show the parent alone.

System: female Sprague-Dawley rats (Sham and Ovx)
Test: Female Rat Study: chronic oral treatment with a GHRP mimetic, non-fasting plasma insulin and metabolite levels
Type: in vivo
Conditions: non-fasting blood at sacrifice
Description: This study evaluates the effect of chronic treatment with a GHRP mimetic on weight, body composition and non-fasting plasma concentrations of glucose, insulin, lactate and lipids in estrogen-deficient and estrogenreplete female rats. Acute responsiveness of serum GH levels to i.v. administration of the GH releasing agent was assessed on the last day of dosing. Body weight was monitored weekly throughout the treatment period; additionally, body composition and plasma levels of glucose, insulin, lactate, cholesterol and triglycerides were assessed at the end of treatment.
Virgin female Sprague-Dawley rats were obtained from Charles River Laboratories (Wilmington, Mass.) and underwent bilateral ovariectomy (Ovx) or sham-surgery (Sham) at approximately 12 weeks of age. For sham surgeries, ovaries were exteriorized and replaced into the abdominal cavity. Following surgery the rats were housed individually in 20 cm×32 cm×20 cm cages under standard vivarium conditions (about 24° C. with about 12 hours light/12 hours dark cycle). All rats were allowed free access to water and a pelleted commercial diet (Agway ProLab 3000, Agway Country Food, Inc., Syracuse, N.Y.). The experiment was conducted in accordance with NIH Guidelines for the Care and Use of Laboratory Animals.
Approximately seven months post-surgery, Sham and Ovx rats were weighed and randomly assigned to groups. Rats were dosed daily by oral gavage with 1 mL of either vehicle (1% ethanol in distilled-deionized water), 0.5 mg/kg or 5 mg/kg of a growth hormone releasing agent for 90 days. Rats were weighed at weekly intervals throughout the study. Twenty-four hours after the last oral dose, the acute response of serum growth hormone (GH) to test agent was assessed by the following procedure. Rats were anesthetized with sodium pentobarbital 50 mg/kg. Anesthetized rats were weighed and a baseline blood sample (˜100 μl) was collected from the tail vein. Test agent (growth hormone releasing agent or vehicle) was then administered intravenously via the tail vein in 1 mL. Approximately ten minutes after injection, a second 100 μl blood sample was collected from the tail. Blood was allowed to clot at about 4° C., then centrifuged at 2000×g for about 10 minutes. Serum was stored at about −70° C. Serum growth hormone concentrations were determined by radioimmunoassay as previously described. Following this procedure, each anesthetized rat underwent whole body scanning by dual-energy X-ray absorptiometry (DEXA, Hologic QDR 1000/W, Waltham Mass.). A final blood sample was collected by cardiac puncture into heparinized tubes. Plasma was separated by centrifugation and stored frozen as described above.
Plasma insulin is determined by radioimmunoassay using a kit from Binax Corp. (Portland, Me.). The interassay coefficient of variation is ≦10%. Plasma triglycerides, total cholesterol, glucose and lactate levels are measured using Abbott VP™ and VP Super System® Autoanalyzer (Abbott Laboratories, Irving, Texas), using the A-Gent™ Triglycerides, Cholesterol and Glucose Test reagent systems, and a lactate kit from Sigma, respectively. The plasma insulin, triglycerides, total cholesterol and lactate lowering activity of a growth hormone releasing peptide (GHRP) or GHRP mimetic such as a compound of formula I, are determined by statistical analysis (unpaired t-test) with the vehicle-treated control group.

[1] = Ovx rats, 0.5 mg/kg daily oral gavage for 90 days
[2] = Ovx rats, 5.0 mg/kg daily oral gavage for 90 days
[3] = Sham rats, 0.5 mg/kg daily oral gavage for 90 days
[4] = Sham rats, 5.0 mg/kg daily oral gavage for 90 days

SMILES: CN1N=C2CCN(C(=O)[C@@H](COCc3ccccc3)NC(=O)C(C)(C)N)C[C@@]2(Cc2ccccc2)C1=O [2-amino-N-[2-(3a-(R)-benzyl-2-methyl-3-oxo-2,3,3a,4,6,7-hexahydro-pyrazolo[4,3-c]pyridin-5-yl)-1-(R)-(benzyloxymethyl)-2-oxo-ethyl]-isobutyramide L-tartaric acid salt]
- Cholesterol (mean plasma level) [1]: 92.5 mg/dL
- Glucose (mean plasma level) [1]: 179.7 mg/dL
- Insulin (mean plasma level) [1]: *78.7 uU/mL
- Lactate (mean plasma level) [1]: 3.6 mg/dL
- Triglyceride (mean plasma level) [1]: 181.9 mg/dL
- Cholesterol (mean plasma level) [2]: 102.2 mg/dL
- Glucose (mean plasma level) [2]: 177.2 mg/dL
- Insulin (mean plasma level) [2]: *84.1 uU/mL
- Lactate (mean plasma level) [2]: 3.1 mg/dL
- Triglyceride (mean plasma level) [2]: 158.4 mg/dL
- Cholesterol (mean plasma level) [3]: 95.4 mg/dL
- Glucose (mean plasma level) [3]: *142.7 mg/dl
- Insulin (mean plasma level) [3]: 94.9 uU/mL
- Lactate (mean plasma level) [3]: 3.7 mg/dL
- Triglyceride (mean plasma level) [3]: 219.6 mg/dL
- Cholesterol (mean plasma level) [4]: *80.6 mg/dl
- Glucose (mean plasma level) [4]: *139.9 mg/dl
- Insulin (mean plasma level) [4]: 95.7 uU/mL
- Lactate (mean plasma level) [4]: *3.2 mg/dl
- Triglyceride (mean plasma level) [4]: 227.2 mg/dL
